Type in all cases: in vivo
Assay [1] has as its system Euschistus heros (neotropical brown stink bug). Briefly: Activity against Euschistus heros, soybean leaf spray (Example B7). The conditions noted are these: 120 h, N-2 nymphs on soybean leaf, 5 days after infestation. As to the method: Example B7: Activity Against Euschistus heros (Neotropical Brown Stink Bug)
Soybean leaf on agar in 24-well microtiter plates were sprayed with aqueous test solutions prepared from 10′000 ppm DMSO stock solutions. After drying the leaf were infested with N-2 nymphs. The samples were assessed for mortality 5 days after infestation.

In assay [2] the test system is Anopheles stephensi (Indian malaria mosquito). Briefly: Activity against Anopheles stephensi, dry deposit in tissue culture plates (Example B11). The conditions noted are these: 200 ppm in ethanol, adult females, after 48 h and/or 24 h. As to the method: Example B11: Activity Against Anopheles stephensi (Indian Malaria Mosquito)
Test solutions, at an application rate of 200 ppm in ethanol, were applied to 12 well tissue culture plates. Once the deposits were dry, five, two to five day old adult female Anopheles stephensi were added to each well, and sustained with a 10% sucrose solution in a cotton wool plug. Assessment of knockdown was made one hour after introduction, and mortality was assessed at 24 and 48 hours after introduction. The following compounds gave at least 80% control of Anopheles stephensi after 48 h and/or 24 h: P1.14.

For assay [3], the system named is Myzus persicae (green peach aphid). Description: Activity against Myzus persicae, sunflower leaf disc spray (Example B5). The conditions noted are these: foliar, 144 h, mixed-age aphid population on sunflower leaf discs, 6 days after infestation. Here is the method:
Example B5: Activity Against Myzus persicae (Green Peach Aphid)
Sunflower leaf discs were placed on agar in a 24-well microtiter plate and sprayed with aqueous test solutions prepared from 10′000 ppm DMSO stock solutions. After drying, the leaf discs were infested with an aphid population of mixed ages. The samples were assessed for mortality 6 days after infestation.

The subject of assay [4] is Plutella xylostella (diamond back moth). Description: Activity against Plutella xylostella, artificial diet (Example B2). The conditions noted are these: 120 h, L2 larvae on artificial diet, 5 days after infestation, read-out: effect in at least one of the two categories (mortality or growth inhibition). Here is the method:
Example B2: Activity Against Plutella xylostella (Diamond Back Moth)
24-well microtiter plates with artificial diet were treated with aqueous test solutions prepared from 10′000 ppm DMSO stock solutions by pipetting. After drying, the plates were infested with L2 larvae (10 to 15 per well). The samples were assessed for mortality and growth inhibition in comparison to untreated samples 5 days after infestation. The following compounds gave an effect of at least 80% in at least one of the two categories (mortality or growth inhibition) at an application rate of 200 ppm: P1.3, P1.6, P1.7, P1.8, P1.9, P1.13, P1.14, P1.15, P1.16, P1.17 and P1.18.

In assay [5] the test system is Spodoptera littoralis (Egyptian cotton leaf worm). Description: Activity against Spodoptera littoralis, cotton leaf disc spray (Example B1). The conditions noted are these: foliar, 72 h, L1 larvae on cotton leaf discs, 3 days after infestation, read-out: control in at least one of the three categories (mortality, anti-feedancy or growth inhibition). As to the method: Example B1: Activity Against Spodoptera littoralis (Egyptian Cotton Leaf Worm)
Cotton leaf discs were placed on agar in 24-well microtiter plates and sprayed with aqueous test solutions prepared from 10′000 ppm DMSO stock solutions. After drying the leaf discs were infested with five L1 larvae. The samples were assessed for mortality, anti-feedant effect, and growth inhibition in comparison to untreated samples 3 days after infestation. Control of Spodoptera littoralis by a test sample is when at least one of mortality, anti-feedant effect, and growth inhibition is higher than the untreated sample. The following compounds gave an effect of at least 80% control in at least one of the three categories (mortality, anti-feedancy or growth inhibition) at an application rate of 200 ppm: P1.2, P1.3, P1.6, P1.7, P1.8, P1.9, P1.10, P1.12, P1.13, P1.14, P1.15, P1.16, P1.17 and P1.18.

Assay [6] has as its system Diabrotica balteata (corn root worm). Briefly: Activity against Diabrotica balteata, maize sprouts (Example B3). The conditions noted are these: 96 h, L2 larvae on maize sprouts, 4 days after infestation, read-out: effect in at least one of the two categories (mortality or growth inhibition). Here is the method: Example B3: Activity Against Diabrotica balteata (Corn Root Worm)
Maize sprouts, placed on an agar layer in 24-well microtiter plates were treated with aqueous test solutions prepared from 10′000 ppm DMSO stock solutions by spraying. After drying, the plates were infested with L2 larvae (6 to 10 per well). The samples were assessed for mortality and growth inhibition in comparison to untreated samples 4 days after infestation. The following compounds gave an effect of at least 80% in at least one of the two categories (mortality or growth inhibition) at an application rate of 200 ppm: P1.1, P1.2, P1.6, P1.7, P1.8, P1.9, P1.10, P1.13, P1.14, P1.15, P1.16, P1.17 and P1.18.

SMILES strings stand for the structures.

Usually mortality stands for the percentage killed. A higher mortality goes with a strong lethal effect. As for `CCS(=O)(=O)c1cc(C(F)(F)F)ccc1-n1cc(-c2ccc(C(F)(F)F)nc2)cn1` [Compound P1.14], the mortality at 200 ppm in assay [1] and in assay [3] was no less than 80% throughout. For the same compound, the “control of Anopheles stephensi” value in assay [2] was “at least 80%”. For the same compound, the percent effect (mortality or growth inhibition) at 200 ppm in assay [4] and in assay [6] was no less than 80% in each case. Moreover, the percent control (mortality, anti-feedant effect or growth inhibition) at 200 ppm in assay [5] is no less than 80%.
